Measured values taken from article PMC6943558, “Covalent Inhibition of the Histamine H3 Receptor” (Molecules, 2019).
Read-outs that look alike come from different tables or passages of the source.

Columns and labels:
[1] = target: T1, hH3R (human histamine H3 receptor) (Homo sapiens, UniProt Q9Y5N1); experiment: [3H]NAMH displacement, cell homogenates; format: biochemical
T1 construct: gene HRH3; transiently transfected cDNA, HEK293T cell homogenates

[2] = target: T2, Nanoluc-H4R (histamine H4 receptor) (Homo sapiens, UniProt Q9H3N8); experiment: NanoBRET displacement of clobenpropit-BODIPY; format: cell-based; conditions: fluorescent tracer clobenpropit-BODIPY
T2 construct: gene HRH4; NanoLuc reporter fusion (Nluc-H4R); details not in the main text

[3] = target: T1, hH3R (human histamine H3 receptor); experiment: […]GTPγS binding, cell homogenates; format: biochemical
[4] = target: T1, hH3R (human histamine H3 receptor); experiment: […]GTPγS binding, cell homogenates; format: biochemical; remark: listed apart in the source

T1 sequence (Q9Y5N1 whole entry): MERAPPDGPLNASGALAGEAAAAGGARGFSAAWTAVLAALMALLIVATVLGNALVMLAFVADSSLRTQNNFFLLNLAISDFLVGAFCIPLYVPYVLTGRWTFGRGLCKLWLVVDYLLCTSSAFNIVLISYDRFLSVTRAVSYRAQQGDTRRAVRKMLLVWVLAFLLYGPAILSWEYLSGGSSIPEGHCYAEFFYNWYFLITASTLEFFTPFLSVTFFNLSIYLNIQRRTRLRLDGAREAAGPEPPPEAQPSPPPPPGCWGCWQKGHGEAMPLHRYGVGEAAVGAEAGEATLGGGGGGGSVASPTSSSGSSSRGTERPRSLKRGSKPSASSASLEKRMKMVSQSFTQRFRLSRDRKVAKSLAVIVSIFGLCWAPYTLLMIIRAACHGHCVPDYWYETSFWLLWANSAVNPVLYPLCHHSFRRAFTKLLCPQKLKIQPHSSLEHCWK

Row | SMILES | Ki ([1]; read-out: pKi (converted)) | other results
1 | Cc1nc(-c2ccccc2)cc(N2CCN(C)CC2)n1 [compound 2, 2] | 79.4 nM | –
2 | C=Cc1nc(C(C)C)cc(N2CCN(C3CCC3)CC2)n1 [compound 22, 22] | 3160 nM | –
3 | CC(C)c1cc(N2CC(N(C)C)C2)nc(N)n1 [compound 10, 10] | 50.1 nM | –
4 | C#Cc1nc(C)cc(N2CCN(C3CCC3)CC2)n1 [compound 20, 20] | > 10000 nM | –
5 | CC(C)c1cc(N2CCN(C3CCC3)CC2)nc(N)n1 [compound 11, 11] | 200 nM | –
6 | C=Cc1nc(C(C)C)cc(N2CC(N(C)C)C2)n1 [compound 21, 21] | > 10000 nM | –
7 | C=Cc1nc(-c2ccccc2)cc(N2CCN(C)CC2)n1 [compound 1, VUF14480] | > 10000 nM | –
8 | NCCc1c[nH]cn1 [histamine] | – | Ki ([1]; 50 mM Tris-HCl pH 7.4, 25 °C, vehicle-pretreated homogenates): Radioligand displacement curves of [^3H]NAMH with histamine on cell homogenates
9 | Cc1cc(N2CCN(C3CCC3)CC2)nc(N)n1 [compound 12, 12] | 316 nM | –
10 | C=Cc1nc(C)cc(N2CCN(C3CCC3)CC2)n1 [compound 23, 23] | 3980 nM | –

The next lines start with results.

Row | Ki ([1]; read-out: pKi (converted)) | SMILES | other results
11 | > 10000 nM | CCc1nc(C(C)C)cc(N2CC(N(C)C)C2)n1 [compound 35, 35] | –
12 | > 10000 nM | Cc1nc(C(C)C)cc(N2CC(N(C)C)C2)n1 [compound 34, 34] | –
13 | 1260 nM | Cc1nc(C(C)C)cc(N2CCN(C3CCC3)CC2)n1 [compound 36, 36] | –
14 | 631 nM | O=C(CCl)Nc1cccc(N2CCN(C3CCC3)CC2)c1 [compound 43, 43] | –
15 | 3160 nM | CCc1nc(C(C)C)cc(N2CCN(C3CCC3)CC2)n1 [compound 37, 37] | –
16 | 1260 nM | Nc1cccc(N2CCN(C3CCC3)CC2)c1 [compound 42, 3-(4-Cyclobutylpiperazin-1-yl)aniline] | no tracer displacement up to 10 μM [2]: > 10 µM
17 | 316 nM | S=C=Nc1cccc(N2CCN(C3CCC3)CC2)c1 [compound 44, 1-Cyclobutyl-4-(3-isothiocyanatophenyl)piperazine] | IC50 [3]: 794 nM; EC50 [4]: 79.4 nM; no tracer displacement up to 10 μM [2]: > 10 µM
